Measured values as given in patent EP0086092A2, “Antifungal compositions” (priority 1982, dated 1983).

How the values were obtained:
C. albicans = assay: topical treatment of C. albicans skin infections of mice; format: in vivo; conditions: female CF-1 mice, shaved back skin infected with clinical isolates; topical treatment for 5 days; aculeacin A at its MIC for each isolate; compared with aculeacin A itself, Lotrimin cream and control
Description: Clinical isolates of C. albicans were grown in Sabouarud dextrose agar and subcultured into mouse serum and incubated at 35 C. Female mice (CF-1, 4 to 6 weeks old) were shaved on the back (2cm ^2 area).
The shaved area was cleaned with 70%'alcohol and scrubbed with a wire brush. This area was then painted with the C. albicans in mouse serum as noted above (10^5-10^6 CFu/ml.) and after drying this area was covered with sterile gauze and the infection was allowed to develop over two days. After the development of the infection, the mice were treated with aculeacin A/oleic acid composition, aculeacin A and Lotrimin^R (Clotrimazole-Schering) for 5 days. The minimum inhibitory concentration (MIC) for aculeacin A for each clinical isolate of C. albicans was determined and that amount was employed in each experiment. Commercially available Lotrimin^R cream was utilized in each experiment. […] Note that bacterial contamination was ruled out by microscopic examination. • [formula] where 4 - the most severe infection - zone of inoculation highly erythrematous with culture mainly consisting of C. albicans. • 3 - severe infection with some healing • 2 - less severe infection • 1 - very little infection • 0 - no infection.

Candida albicans B 311 = assay: disc diffusion, zone of inhibition on seeded agar plates; format: cell-based; conditions: 16-18 h; for Zone Size / Zone Size B 311: 28-37°C; for Zone Size Sabouarud Agar / Zone Size YNB agar: Table II, 37°C; for Zone Size YNB agar: lysine; for Zone Size B 311: Table IV-a
Description: The antifungal activity of aculeacin A and the compositions of aculeacin A and fatty acids was measured by disc diffusion.
The effects of a number of fatty acids on the antifungal activity of aculeacin A were determined by utilizing seeded plates of Candida albicans B 311 in yeast nitrogen base (YNB) agar (Difco) with glucose as the carbon source. A composition containing one unit by weight of aculeacin A and 5 units of fatty acid or the sodium salt thereof was spotted on the seeded plates and the size of the zone of inhibition after 16-18 hours incubation at 28-37 °C was measured.
Additional fatty acids were tested to determine , if they increased the intrinsic activity of aculeacin A against C. albicans B 311 utilizing seeded plates of YNB agar (Difco) with lysine as the carbon source and seeded plates of Sabouarud dextrose agar (Difco). Compositions containg one µg of aculeacin A and various amounts of the fatty acid was spotted on the seeded plates and the size of the zone of inhibition after 16-18 hours incubation at 37 °C was measured.
The antifungal effects of compositions containing a single amount of oleic acid as the sodium salt while varying the amounts of aculeacin A were determined by utilizing seeded plates of Candida albicans B 311 in Sabouarud dextrose agar and measuring the zone of inhibition after 16-18 hours incubation at 28-37°C.
(§1) The antifungal effects of compositions containing a single amount of aculeacin A while varying the amounts. of oleic acid as the sodium salt were determined by utilizing seeded plates of Candida albicans strains B 311, BC 759 and B 3153A and measuring the zone of inhibition after 16-18 hours at 28-37°C. This test was also performed with linoleic acid and linolenic acid.
(§2) The seeded plates of Candida albicans strains B 311, BC 759, and B 3153A were prepared by inoculating 50 ml of trypticase soy broth (BBL) with one ml of the preserved frozen culture and incubating the inoculum at 37°C for 7 hours on a rotary shaker. Two milliliters of this culture were used to inoculate one liter of Sabouarud dextrose agar (Difco) at 50°C and 15 milliliters of the resultant medium poured into 150 mm petri-dishes.

Candida albicans BC 759 = assay: as above; format: cell-based; conditions: Table IV-a, 16-18 h, 28-37°C
Description: (§3) The antifungal activity of aculeacin A and the compositions of aculeacin A and fatty acids was measured by disc diffusion. Potentiation of antifungal activity was examined by three different methods employing: (1) a single concentration of aculeacin A and a single concentration of known fatty acids; '(2) various concentrations of aculeacin A with a single concentration of individual fatty acids; and (3) various concentrations of fatty acids with a single concentration of aculeacin A. The antifungal activities of aculeacin A and the fatty acids were separately checked as controls.
as §1, §2

Candida albicans B 3153A = assay: as above; format: cell-based; conditions: Table IV-a, 16-18 h, 28-37°C
Description: as §3, §1, §2

[1] = aculeacin A 0.40 µg + oleic acid (as sodium salt) 5 µg
[2] = aculeacin A 0.40 µg + oleic acid (as sodium salt) 10 µg
[3] = aculeacin A 0.40 µg + oleic acid (as sodium salt) 20 µg
[4] = aculeacin A 0.40 µg + oleic acid (as sodium salt) 40 µg
[5] = aculeacin A 0.40 µg + oleic acid (as sodium salt) 78 µg
[6] = aculeacin A 0.40 µg + oleic acid (as sodium salt) 156 µg
[7] = aculeacin A 0.40 µg + oleic acid (as sodium salt) 312 µg
[8] = aculeacin A 0.40 µg + oleic acid (as sodium salt) 625 µg
[9] = aculeacin A 0.40 µg + oleic acid (as sodium salt) 1250 µg

With CCCCCCCC/C=C\CCCCCCCC(=O)O [Oleic Acid] the “reduction in the infection” value (C. albicans) was “did not inhibit the infection”, the “Zone Size” value (Candida albicans B 311; Table I, YNB agar, glucose as carbon source, composition of 1 unit by weight aculeacin A + 5 units fatty acid) was 32 mm and the “Zone Size Sabouarud Agar” value (Candida albicans B 311; Sabouarud dextrose agar, aculeacin A 0 µg, fatty acid 250 µg alone) was 0 mm. The “Zone Size Sabouarud Agar” value (Candida albicans B 311; Sabouarud dextrose agar, aculeacin A 0 µg, fatty acid 500 µg alone) was 0 mm, the “Zone Size Sabouarud Agar” value (Candida albicans B 311; Sabouarud dextrose agar, aculeacin A 0 µg, fatty acid 1000 µg alone) was 0 mm and the “Zone Size Sabouarud Agar” value (Candida albicans B 311; Sabouarud dextrose agar, composition of aculeacin A 1 µg + fatty acid 250 µg) was 28 mm. The “Zone Size Sabouarud Agar” value (Candida albicans B 311; Sabouarud dextrose agar, composition of aculeacin A 1 µg + fatty acid 500 µg) was 26 mm, the “Zone Size Sabouarud Agar” value (Candida albicans B 311; Sabouarud dextrose agar, composition of aculeacin A 1 µg + fatty acid 1000 µg) was 26 mm and the “Zone Size YNB agar” value (Candida albicans B 311; YNB agar, aculeacin A 0 µg, fatty acid 250 µg alone) was 0 mm. The “Zone Size YNB agar” value (Candida albicans B 311; YNB agar, aculeacin A 0 µg, fatty acid 500 µg alone) was 0 mm, the “Zone Size YNB agar” value (Candida albicans B 311; YNB agar, aculeacin A 0 µg, fatty acid 1000 µg alone) was 0 mm and the “Zone Size YNB agar” value (Candida albicans B 311; YNB agar, composition of aculeacin A 1 µg + fatty acid 250 µg) was 35 mm. The “Zone Size YNB agar” value (Candida albicans B 311; YNB agar, composition of aculeacin A 1 µg + fatty acid 500 µg) was 35 mm, the “Zone Size YNB agar” value (Candida albicans B 311; YNB agar, composition of aculeacin A 1 µg + fatty acid 1000 µg) was 35 mm and the “Zone Size” value (Candida albicans B 311; Table III, Sabouarud dextrose agar, aculeacin A 0.000 µg, oleic acid (as sodium salt) 12.5 µg alone) was 0 mm. For the same molecule, the “Zone Size” value (Candida albicans B 311; Table III, Sabouarud dextrose agar, aculeacin A 0.020 µg + oleic acid (as sodium salt) 12.5 µg) was “trace”, the “Zone Size” value (Candida albicans B 311; Table III, Sabouarud dextrose agar, aculeacin A 0.039 µg + oleic acid (as sodium salt) 12.5 µg) was 28 mm and the “Zone Size” value (Candida albicans B 311; Table III, Sabouarud dextrose agar, aculeacin A 0.078 µg + oleic acid (as sodium salt) 12.5 µg) was 29 mm. The “Zone Size” value (Candida albicans B 311; Table III, Sabouarud dextrose agar, aculeacin A 0.156 µg + oleic acid (as sodium salt) 12.5 µg) was 32 mm, the “Zone Size” value (Candida albicans B 311; Table III, Sabouarud dextrose agar, aculeacin A 0.312 µg + oleic acid (as sodium salt) 12.5 µg) was 35 mm and the “Zone Size” value (Candida albicans B 311; Table III, Sabouarud dextrose agar, aculeacin A 0.625 µg + oleic acid (as sodium salt) 12.5 µg) was 35 mm. The “Zone Size” value (Candida albicans B 311; Table III, Sabouarud dextrose agar, aculeacin A 1.25 µg + oleic acid (as sodium salt) 12.5 µg) was 37 mm, the “Zone Size B 311” value (Candida albicans B 311; [1]) was 13 mm and the “Zone Size B 311” value (Candida albicans B 311; [2]) was 14 mm. For the same molecule, the “Zone Size B 311” value (Candida albicans B 311; [3]) was 15 mm, the “Zone Size B 311” value (Candida albicans B 311; [4]) was 17 mm and the “Zone Size B 311” value (Candida albicans B 311; [5]) was 20 mm. For the same molecule, the “Zone Size B 311” value (Candida albicans B 311; [6]) was 26 mm, the “Zone Size B 311” value (Candida albicans B 311; [7]) was 30 mm and the “Zone Size B 311” value (Candida albicans B 311; [8]) was 32 mm. The “Zone Size B 311” value (Candida albicans B 311; [9]) was 35 mm, the “Zone Size BC 759” value (Candida albicans BC 759; [1]) was 13 mm and the “Zone Size BC 759” value (Candida albicans BC 759; [2]) was 15 mm. The “Zone Size BC 759” value (Candida albicans BC 759; [3]) was 18 mm, the “Zone Size BC 759” value (Candida albicans BC 759; [4]) was 18 mm and the “Zone Size BC 759” value (Candida albicans BC 759; [5]) was 20 mm. The “Zone Size BC 759” value (Candida albicans BC 759; [6]) was 24 mm, the “Zone Size BC 759” value (Candida albicans BC 759; [7]) was 28 mm and the “Zone Size BC 759” value (Candida albicans BC 759; [8]) was 29 mm. The “Zone Size BC 759” value (Candida albicans BC 759; [9]) was 32 mm, the “Zone Size B 3153-A” value (Candida albicans B 3153A; [1]) was 13 mm and the “Zone Size B 3153-A” value (Candida albicans B 3153A; [2]) was 15 mm. The “Zone Size B 3153-A” value (Candida albicans B 3153A; [3]) was 18 mm, the “Zone Size B 3153-A” value (Candida albicans B 3153A; [4]) was 17 mm and the “Zone Size B 3153-A” value (Candida albicans B 3153A; [5]) was 18 mm. The “Zone Size B 3153-A” value (Candida albicans B 3153A; [6]) was 25 mm, the “Zone Size B 3153-A” value (Candida albicans B 3153A; [7]) was 25 mm and the “Zone Size B 3153-A” value (Candida albicans B 3153A; [8]) was 28 mm. The “Zone Size B 3153-A” value (Candida albicans B 3153A; [9]) was 29 mm.
